Experimental data from ChEMBL document CHEMBL1127241, “Taxol photoaffinity labels 2. Synthesis and biological evaluation of N-(4-azidobenzoyl)-N-debenzoyltaxol, N-(4-azido-2,3,5,6-tetrafluorobenzoyl)-N-debenzoyltaxol, and 7-(4-azido-2,3,5,6-tetrafluorobenzoyl)taxol” (1994).

Legend:
[1] = molecular target: Tubulin alpha chain (Sus scrofa) (UniProt P02550); assay: Concentration which causes polymerization of 50% of the tubulin present in 15 min at 37 degree Celsius (stimulation of microtubule assembly) expressed as ED50 ratio relative to taxol; format: functional
Chain of Tubulin alpha chain (Sus scrofa) (P02550 whole entry, looked up): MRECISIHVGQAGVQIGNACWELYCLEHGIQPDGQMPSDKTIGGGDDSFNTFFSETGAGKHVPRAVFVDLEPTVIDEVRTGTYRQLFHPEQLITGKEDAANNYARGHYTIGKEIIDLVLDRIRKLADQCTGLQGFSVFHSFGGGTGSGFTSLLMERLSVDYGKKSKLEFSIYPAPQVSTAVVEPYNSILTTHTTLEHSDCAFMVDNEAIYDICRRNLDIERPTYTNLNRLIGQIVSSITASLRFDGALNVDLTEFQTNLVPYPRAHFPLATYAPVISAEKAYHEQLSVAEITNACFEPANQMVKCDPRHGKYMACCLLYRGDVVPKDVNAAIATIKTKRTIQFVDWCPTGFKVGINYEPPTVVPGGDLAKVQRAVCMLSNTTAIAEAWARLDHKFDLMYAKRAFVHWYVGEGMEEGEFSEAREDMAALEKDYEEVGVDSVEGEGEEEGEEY

[2] = tested on: B16; assay: Concentration which produces 50% inhibition of proliferation of B16 melanoma cells after 40 hr incubation expressed as ED50 ratio relative to taxol; format: functional, Mus musculus

CC(=O)O[C@H]1C(=O)[C@]2(C)[C@@H](OC(=O)c3c(F)c(F)c(N=[N+]=[N-])c(F)c3F)C[C@H]3OC[C@@]3(OC(C)=O)[C@H]2[C@H](OC(=O)c2ccccc2)[C@]2(O)C[C@H](OC(=O)[C@H](O)[C@@H](NC(=O)c3ccccc3)c3ccccc3)C(C)=C1C2(C)C gave an ED50 ratio [1] greater than 22.4.

With CC(=O)O[C@H]1C(=O)[C@@]2(C)[C@H]([C@H](OC(=O)c3ccccc3)[C@]3(O)C[C@H](OC(=O)[C@H](O)[C@@H](NC(=O)c4ccc(N=[N+]=[N-])cc4)c4ccccc4)C(C)=C1C3(C)C)[C@]1(OC(C)=O)CO[C@@H]1C[C@@H]2O the ED50 ratio [2] was 4.6 and the ED50 ratio [1] was 2.

For CC(=O)O[C@H]1C(=O)[C@]2(C)[C@@H](OC(=O)c3ccc(N=[N+]=[N-])cc3)C[C@H]3OC[C@@]3(OC(C)=O)[C@H]2[C@H](OC(=O)c2ccccc2)[C@]2(O)C[C@H](OC(=O)[C@H](O)[C@@H](NC(=O)c3ccccc3)c3ccccc3)C(C)=C1C2(C)C, the ED50 ratio [2] was 30 and the ED50 ratio [1] was 21.4.

Work on CC(=O)O[C@H]1C(=O)[C@@]2(C)[C@H]([C@H](OC(=O)c3ccccc3)[C@]3(O)C[C@H](OC(=O)[C@H](O)[C@@H](NC(=O)c4c(F)c(F)c(N=[N+]=[N-])c(F)c4F)c4ccccc4)C(C)=C1C3(C)C)[C@]1(OC(C)=O)CO[C@@H]1C[C@@H]2O yielded an ED50 ratio [2] of 14.8 and an ED50 ratio [1] of 4.6.
